This is an account of results in patent US6716836B2, “Non-nucleoside reverse transcriptase inhibitors” (Boehringer Ingelheim (Canada) Ltd., priority 2001, dated 2004).

For one test, the target named is T1, HIV-1 RT wild type (WT) (Human immunodeficiency virus type 1 group M subtype B, UniProt P04585).
T1 construct: Heterodimeric RT was eluted using a descending gradient; made in house; host or cells: E. coli
The experiment in a line: Reverse Transcriptase (RT) assay, wild type enzyme. In kind it is biochemical. An excerpt: (§1) Among the enzymes for which Human Immunodeficiency Virus (HIV-1) encodes is a reverse transcriptase (1), so-named because it transcribes a DNA copy from an RNA template. This activity can be quantitatively measured in a cell-free enzyme assay, which has been previously described (2), and is based upon the observation that reverse transcriptase is able to use a synthetic template poly r(C) primed with oligo d(G) to transcribe a radio-labelled, acid-precipitable DNA strand utilising ^3H-dGTP as a substrate. The assay described below utilises the wild type (WT) enzyme, which is the predominant form of the enzyme observed with patients infected with HIV-1. Utilisation of mutant RT enzymes (for example, Y181C, prepared by site-directed mutagenesis in which the tyrosine residue at codon 181 has been replaced by a cysteine residue, or the mutants K103N, V106A and Y188C) and analogous assay conditions allows compounds to be evaluated for their effectiveness at inhibiting the mutant enzymes.
(§2) The HIV-1 RT expression clone, pKRT2, was obtained from Yale University (3). An overnight culture, grown in 2×YT medium (37° C., 225 rpm) (4), supplemented with 100 μg/mL ampicillin for positive selection was used to inoculate the 2×YT medium. The culture was incubated (37° C., 225 rpm) until it reached an OD600 of 0.6-0.9. At that time, the repressor inhibitor IPTG (isopropyl P-D-thiogalactopyranoside) was added to 0.5 mM, and the mixture was incubated for an additional 2 hours.
(§3) Purification of recombinant reverse transcriptase was performed using a combination of methods previously described (5). This procedure is summarised briefly as follows: E. Coli containing RT-1 wt or RT-1 (Y181 C) were suspended in 50 mM MES, pH 6.0 containing 10% glycerol, lysed in a French press, centrifuged, and the supernates discarded. Lysate pellets were extracted with buffer A (50 mM MES, pH 6.0, 100 mM KCl, 50 mM KPi, 10% glycerol, 0.02% hexyl-β-glucoside), and re-centrifuged; nucleic acid in supernates was precipitated with 0.1% polyethylenimine. […] Bound RT was eluted with a gradient of 0 to 1.0M
(§4) (NH4)2 SO4 in buffer B. Heparin-Sepharose fractions containing RT were concentrated (Amicon YM-30 membrane), combined with equal volumes of 2.0M (NH4)2SO4 in buffer B and injected onto a 21.5×150 mm TSK Phenyl-5PW HIC HPLC column (Phenomenex). Heterodimeric RT was eluted using a descending gradient of 1.0M to 0M (NH4)2SO4 in buffer B, concentrated, and stored at 4° C.
(§5) The 2.4× concentrated stock reaction mixture was aliquoted and stored at −20° C. The mixture is stable and can be thawed for use in each assay. This enzyme assay has been adapted to a 96 well microtiter plate system, and has been previously described (6). Tris buffer (50 mM, pH 7.8), vehicle (solvent diluted to match the compound dilution), or compounds in vehicle were dispensed into 96-well microtiter plates (10 μL/well; 3 wells/compound). The HIV-1 RT enzyme was thawed, diluted in 50 mM Tris pH 7.8 containing 0.05% Chaps to give 1.5 nM enzyme and 25 μL were dispensed per well. Ten μL of 0.5M EDTA were added to the first three wells of the microtiter plate. EDTA chelates the Mg^2+ present and prevents reverse transcription. This group served as background polymerisation, which was subtracted, from all other groups. Twenty-five μl of the 2.4× reaction mixture was added to all wells and the assay was allowed to incubate at room temperature for 30 minutes. The assay was terminated by precipitating the DNA in each well with 60 μL of sodium pyrophosphate (2% w/v) in 10% trichloroacetic acid (TCA) (10% w/v). The microtiter plate was incubated for 15 minutes at 4° C. and the precipitate was harvested onto #30 glass fibre paper (Schleicher & Schuell) using a Tomtech 96-well harvester. The filters were dried, placed in plastic bags with Betaplate scintillation cocktail (Pharmacia/LKB) and counted in the Betaplate counter (Pharmacia/LKB).
(§6) The calculation for percent inhibition is as follows: [formula] […]

Test [1] concerns the target T2, HIV-1 RT double mutant K103N/Y181C (Human immunodeficiency virus type 1 group M subtype B, UniProt P04585, K690N/Y768C).
T2 construct: Heterodimeric RT was eluted using a descending gradient; made in house; host or cells: E. coli (inferred; the text describes only wild type and Y181C preparations)
The experiment in a line: Reverse Transcriptase (RT) assay, double mutant enzyme. Format: biochemical.
Excerpt: as §1, §2, §3, §4, §5, §6

SMILES strings stand for the structures.

As a reminder, the IC50 is the midpoint of a concentration-inhibition curve.

Regarding `CCN1c2ncc(CCOc3cccc4c3CS(=O)(=O)N4C)cc2C(=O)N(C)c2ccc(C)nc21` [Compound 114], the IC50 (on HIV-1 RT wild type (WT); in test [1]) was below 100 nM in each case. `CCN1c2ncc(CCOc3cccc4c3CS(=O)(=O)N4)cc2C(=O)Nc2c(C)ccnc21` [Compound 120]: at HIV-1 RT wild type (WT), the IC50 lay within 100 to 1000 nM. As to `CN1C(=O)c2cc(CCOc3cccc4c3CS(=O)(=O)N4C)cnc2N(C2CC2)c2ncccc21` [Compound 116], the IC50 is below 100 nM at HIV-1 RT wild type (WT) and 100 to 1000 nM in test [1]. Consider `CCN1c2ncc(COc3cccc4c3CS(=O)(=O)N4C)cc2C(=O)N(C)c2ccc(F)nc21` [Compound 107], for which the IC50 at HIV-1 RT wild type (WT) was below 100 nM. `CCN1c2ncc(CCOc3cccc4c3CS(=O)(=O)N4CC(=O)N(C)O)cc2C(=O)N(C)c2cccnc21` [Compound 134]: the IC50 (on HIV-1 RT wild type (WT); in test [1]) was below 100 nM in each case.

With `CCN1c2ncc(CCOc3cccc4c3CCS(=O)(=O)N4Cc3csc(C)n3)cc2C(=O)N(C)c2cccnc21` [Compound 622], the 50% inhibitory concentration (IC50) (on HIV-1 RT wild type (WT); in test [1]) was below 100 nM throughout. Take `CCN1c2ncc(COc3cccc4c3C(C)S(=O)(=O)N4C)cc2C(=O)N(C)c2ccc(F)nc21` (stereo not shown) [Compound 108]: the IC50 on HIV-1 RT wild type (WT) lay in the range of 100 to 1000 nM. For the compound `CCN1c2ncc(CCOc3cccc4c3CCS(=O)(=O)N4CC(=O)N3CCCC3)cc2C(=O)N(C)c2cccnc21` [Compound 623], the IC50 (at HIV-1 RT wild type (WT); in test [1]) was below 100 nM throughout.

With `CCN1c2ncc(CCOc3cccc4c3CCS(=O)(=O)N4Cc3ncc[nH]3)cc2C(=O)N(C)c2cccnc21` [Compound 642], the 50% inhibitory concentration (IC50) (on HIV-1 RT wild type (WT); in test [1]) was below 100 nM in each case. For `CCN1c2ncc(CCOc3ccc4c(c3)C(C)(C)NS4(=O)=O)cc2C(=O)N(C)c2cccnc21` [Compound 306], the IC50 (at HIV-1 RT wild type (WT); in test [1]) was below 100 nM each time. Regarding `CCN1c2ncc(CCOc3cccc4c3CS(=O)(=O)N4)cc2C(=O)N(C)c2ccc(C)nc21` [Compound 113], the values for the IC50 (at HIV-1 RT wild type (WT); in test [1]) were below 100 nM and 100 to 1000 nM, respectively. Take `CCN1c2ncc(COc3cccc4c3CS(=O)(=O)N4Cc3cc[n+]([O-])cc3)cc2C(=O)N(C)c2ccc(F)nc21` [Compound 148]: at HIV-1 RT wild type (WT), the 50% inhibitory concentration (IC50) was below 100 nM. For the compound `CCN1c2ncc(CCOc3cccc4c3CCS(=O)(=O)N4C(=O)N(C)OC)cc2C(=O)N(C)c2cccnc21` [Compound 611], the IC50 (on HIV-1 RT wild type (WT); in test [1]) was below 100 nM in each case.

For the compound `CCN1c2ncc(CCOc3cccc4c3C=CS(=O)(=O)N4CC)cc2C(=O)N(C)c2cccnc21` [Compound 807], the IC50 (on HIV-1 RT wild type (WT); in test [1]) was below 100 nM each time.

For the compound `CCN1c2ncc(CCOc3ccc4c(c3)CNS4(=O)=O)cc2C(=O)N(C)c2cccnc21` [Compound 301], the results for the IC50 (at HIV-1 RT wild type (WT); in test [1]) were below 100 nM and 100 to 1000 nM, respectively. As for `CCN1c2ncc(CCOc3cccc4c3CS(=O)(=O)N4CCOc3ccncc3)cc2C(=O)N(C)c2cccnc21` [Compound 142], the IC50 (at HIV-1 RT wild type (WT); in test [1]) was below 100 nM throughout.

`CCN1c2ncc(CCOc3cccc4c3CCS(=O)(=O)N4Cc3ccc[n+]([O-])c3)cc2C(=O)N(C)c2cccnc21` [Compound 632]: the IC50 (at HIV-1 RT wild type (WT); in test [1]) was below 100 nM in each case. As for `CCN1c2ncc(CCOc3cccc4c3CCS(=O)(=O)N4CC(=O)O)cc2C(=O)N(C)c2cccnc21` [Compound 614], the IC50 (on HIV-1 RT wild type (WT); in test [1]) was below 100 nM each time. For `CCNC(=O)CN1c2cccc(OCCc3cnc4c(c3)C(=O)N(C)c3cccnc3N4CC)c2CS1(=O)=O` [Compound 140], the IC50 (on HIV-1 RT wild type (WT); in test [1]) was below 100 nM in each case. For `CCN1c2ncc(CCOc3cccc4c3CS(=O)(=O)N4Cc3cc[n+]([O-])cc3)cc2C(=O)Nc2c(C)cc(Cl)nc21` [Compound 146], the IC50 (on HIV-1 RT wild type (WT); in test [1]) was below 100 nM each time. As to `Cc1ccnc2c1NC(=O)c1cc(CCOc3cccc4c3CS(=O)(=O)N4Cc3cc[n+]([O-])cc3)cnc1N2C1CC1` [Compound 144], the IC50 on HIV-1 RT wild type (WT) was below 100 nM; in test [1], 100 to 1000 nM. The corresponding values for `CCN1c2ncc(CCOc3cccc4c3C(C)(C)NS4(=O)=O)cc2C(=O)N(C)c2cccnc21` [Compound 224] are below 100 nM and 100 to 1000 nM. Turning to `CCN1c2ncc(CCOc3cccc4c3CS(=O)(=O)N4CC3CC3)cc2C(=O)Nc2c(C)ccnc21` [Compound 121], the IC50 on HIV-1 RT wild type (WT) is below 100 nM; in test [1], 100 to 1000 nM.

Turning to `CCN1c2ncc(CCOc3cccc4c3CCS(=O)(=O)N4CCCC(N)=O)cc2C(=O)N(C)c2cccnc21` [Compound 635], the IC50 (on HIV-1 RT wild type (WT); in test [1]) was below 100 nM throughout. As to `CCN1c2ncc(COc3cccc4c3CS(=O)(=O)N4)cc2C(=O)N(C)c2ccc(F)nc21` [Compound 104], the IC50 at HIV-1 RT wild type (WT) was above 1000 nM.

On to `Cc1cc(F)nc2c1N(C)C(=O)c1cc(CCOc3cccc4c3CS(=O)(=O)N4C)cnc1N2C1CC1` [Compound 119], for which the IC50 on HIV-1 RT wild type (WT) was below 100 nM; in test [1], 100 to 1000 nM. Turning to `CCN1c2ncc(CCOc3cccc4c3CCS(=O)(=O)N4C(=O)N3CCCC3)cc2C(=O)N(C)c2cccnc21` [Compound 619], the IC50 (at HIV-1 RT wild type (WT); in test [1]) was below 100 nM throughout. On to `CCN1c2ncc(CCOc3cccc4c3CCNS4(=O)=O)cc2C(=O)N(C)c2cccnc21` [Compound 712], for which the concentration for half-maximal inhibition (IC50) (at HIV-1 RT wild type (WT); in test [1]) was below 100 nM each time. As to `Cc1cc(F)nc2c1NC(=O)c1cc(CCOc3cccc4c3CS(=O)(=O)N4C)cnc1N2C1CC1` [Compound 118], the results for the IC50 (at HIV-1 RT wild type (WT); in test [1]) were below 100 nM and 100 to 1000 nM, respectively.

For `Cc1cc(F)nc2c1NC(=O)c1cc(CCOc3cccc4c3CS(=O)(=O)N4)cnc1N2C1CC1` [Compound 106], the IC50 at HIV-1 RT wild type (WT) was below 100 nM. With `CCN1c2ncc(CCOc3cccc4c3CS(=O)(=O)N4C)cc2C(=O)N(C)c2ccc(F)nc21` [Compound 111], the IC50 (at HIV-1 RT wild type (WT); in test [1]) was below 100 nM in each case. With `CCN1c2ncc(CCOc3cccc4c3CCS(=O)(=O)N4CS(C)(=O)=O)cc2C(=O)N(C)c2cccnc21` [Compound 627], the half-inhibitory concentration (IC50) (on HIV-1 RT wild type (WT); in test [1]) was below 100 nM throughout. On to `CCN(CC)C(=O)N1c2cccc(OCCc3cnc4c(c3)C(=O)N(C)c3cccnc3N4CC)c2CCS1(=O)=O` [Compound 610], for which the IC50 (on HIV-1 RT wild type (WT); in test [1]) was below 100 nM each time. For `CCN1c2ncc(CCOc3cccc4c3CS(=O)(=O)N4CC(=O)NO)cc2C(=O)N(C)c2cccnc21` [Compound 133], the IC50 (at HIV-1 RT wild type (WT); in test [1]) was below 100 nM each time. `CCN1C(=O)c2cc(CCOc3cccc4c3C=CS(=O)(=O)N4C)cnc2N(CC)c2ncccc21` [Compound 806]: the IC50 (on HIV-1 RT wild type (WT); in test [1]) was below 100 nM throughout. As to `CCN1c2ncc(CCOc3cccc4c3CS(=O)(=O)N4)cc2C(=O)Nc2c(C)cc(C)nc21` [Compound 109], the IC50 at HIV-1 RT wild type (WT) was below 100 nM; in test [1], 100 to 1000 nM. For `CCOC(=O)N1c2cccc(OCCc3cnc4c(c3)C(=O)N(C)c3cccnc3N4CC)c2CS1(=O)=O` [Compound 122] the same measures were below 100 nM and below 100 nM. `CN1C(=O)c2cc(CCOc3cccc4c3CS(=O)(=O)N4)cnc2N(C2CC2)c2ncccc21` [Compound 105]: the IC50 on HIV-1 RT wild type (WT) is below 100 nM. For the compound `CCN1c2ncc(CCOc3cccc4c3C=CS(=O)(=O)N4)cc2C(=O)N(C)c2cccnc21` [Compound 808], at HIV-1 RT wild type (WT), the IC50 is 100 to 1000 nM.
